Laboratory results as given in US9539196B2, “Compositions comprising a SIRT6 activator and a DNA repair enzyme” (ELC Management LLC, priority 2014, dated 2017).
Where two headings read alike, the source gives them in different places. Ends that are not written are not given here.

How the values were obtained:
[1] = tested on: Normal Human Epidermal Keratinocytes (NHEK); test: Comet assay of DNA fragmentation in NHEK exposed to UVB (Test Example 1); assay type: cell-based; conditions: FIG. 1
Procedure: This study used control samples and three types of test samples. Control samples were neither treated with the peptide, nor exposed to UVB radiation. Type 1 samples were treated with the peptide, as described below, but not exposed to UVB radiation. Type 2 samples were not treated with the peptide, but were exposed to UVB radiation. Type 3 samples were treated with the peptide, as described below, and exposed to UVB radiation. SIRT6 activating peptide (SEQ ID No. 1) in powdered form was prepared in solution at 50 ppm.
For all test samples, Normal Human Epidermal Keratinocytes (NHEK) were seeded on Trevigen Flare™ slides at 8,000 cells/spot for DNA fragmentation analysis. Cells were incubated at 37° C., 95% humidity and 5% CO2 in cell culture media for 24 hours. Type 1 and type 3 samples were treated with the 50 ppm powdered peptide solution at 3% of the cell culture media (equivalent to 0.00015% of peptide in solution), and all samples were incubated for 48 hours. Thereafter, the cell culture media was removed from all samples and replaced with 100 μl of Dulbecco's Phosphate Buffered Saline. […]
Following the six hour incubation, the sample cells were washed with phosphate buffered saline. […] The tail moments were analyzed with the Comet Score software from TriTek, Corp (Sumerduck, Va.). […]

SIRT6 = conditions: Normal Human Epidermal Keratinocytes (NHEK); cited from earlier work
sirtuin 6 = conditions: cited from earlier work; for sirtuin 6 expression: short-term cultures

Substance: Gly-Ala-Gly-Val-Ser-Ala-Glu-NH2 (GAGVSAE-NH2) [SEQ ID No. 1]
- DNA fragmentation (comet tail moment) ([1]; type 1 samples: NHEK treated with peptide (0.00015% in solution), not irradiated): comparable to the control samples
- DNA fragmentation (comet tail moment) ([1]; type 3 samples: NHEK pre-treated with peptide 48 h (0.00015%), 20 mJ/cm^2 UVB, post-treated 6 h): comparable to the control samples
- SIRT6 expression (SIRT6): dose dependent increase in SIRT6 expression
- sirtuin 6 expression stimulation effect, long term (sirtuin 6; long term cultures): maintained for the long term
- sirtuin 6 expression (sirtuin 6; normal human fibroblasts): increase sirtuin 6 expression very significantly
- sirtuin 6 expression (sirtuin 6; normal human keratinocytes): increase sirtuin 6 expression very significantly
